In brackets after ≈: the same amount, converted by molar mass.
What was measured:
[1] = system: Strep. faecalis I; experiment: MIC against human bacteria in vitro; format: cell-based; details: Enterococcus faecalis; Strep. faecalis I; 5% chocolated horse blood agar, 18 hours; read-out: MIC
[2] = system: Staph. aureus W2827; experiment: MIC against human bacteria in vitro; format: cell-based; details: Staphylococcus aureus; Staph. aureus W2827; 5% chocolated horse blood agar, 18 hours; read-out: MIC
[3] = system: M. bovigenitalium ATCC 14173; experiment: MIC against mycoplasma in vitro; format: cell-based; details: 144 h; M. bovigenitalium ATCC 14173; 6 days, 37° C.; read-out: MIC
[4] = system: Corynebacterium pyogenes CY1; experiment: MIC against veterinary bacteria in vitro; details: CY1, 18 h
Description: (§1) The activity of the compounds of the Examples against various veterinarily important bacteria, was assayed in vitro using two-fold serial dilutions in Diagnostic Sensitivity Test Agar inoculated with 10^4 organisms.

[5] = system: M. suipneumoniae Str. 11; experiment: MIC against mycoplasma in vitro; format: cell-based; details: Mesomycoplasma hyopneumoniae, 144 h; M. suipneumoniae Str. 11; 6 days, 37° C.; read-out: MIC
[6] = system: Past. multocida PA2; experiment: MIC against veterinary bacteria in vitro; details: Pasteurella multocida, PA2, 18 h
Description: as §1

[7] = system: M. hyorhinis ATCC 25021; experiment: MIC against mycoplasma in vitro; format: cell-based; details: Mesomycoplasma hyorhinis, ATCC25021, 144 h; M. hyorhinis ATCC 25021; 6 days, 37° C.; read-out: MIC
[8] = system: Bacillus subtilis 6633; experiment: MIC against human bacteria in vitro; format: cell-based; details: Bacillus subtilis 6633; 5% chocolated horse blood agar, 18 hours; read-out: MIC
[9] = system: M. suipneumoniae TAM 6N; experiment: MIC against mycoplasma in vitro; format: cell-based; details: Mesomycoplasma hyopneumoniae, TAM6N, 144 h; M. suipneumoniae TAM 6N; 6 days, 37° C.; read-out: MIC
[10] = system: Staph. aureus 152 (pen. sens); experiment: MIC against veterinary bacteria in vitro; details: Staphylococcus aureus, 18 h
Description: as §1

[11] = system: Strep. pyogenes R80/421-A; experiment: MIC against human bacteria in vitro; format: cell-based; details: Streptococcus pyogenes; Strep. pyogenes R80/421-A; 5% chocolated horse blood agar, 18 hours; read-out: MIC
[12] = system: M. suipneumoniae ATCC 25095; experiment: MIC against mycoplasma in vitro; format: cell-based; details: Mesomycoplasma hyopneumoniae, ATCC25095, 144 h; M. suipneumoniae ATCC 25095; 6 days, 37° C.; read-out: MIC
[13] = system: M. suipneumoniae MS 16; experiment: MIC against mycoplasma in vitro; format: cell-based; details: Mesomycoplasma hyopneumoniae, MS16, 144 h; M. suipneumoniae MS 16; 6 days, 37° C.; read-out: MIC
[14] = system: E. coli ESS; experiment: MIC against human bacteria in vitro; format: cell-based; details: Escherichia coli; E. coli ESS; 5% chocolated horse blood agar, 18 hours; read-out: MIC
[15] = system: Ps. aeruginosa NCTC 10662; experiment: MIC against human bacteria in vitro; format: cell-based; details: Pseudomonas aeruginosa, NCTC10662; Ps. aeruginosa NCTC 10662; 5% chocolated horse blood agar, 18 hours; read-out: MIC
[16] = system: Staph. aureus Russell; experiment: MIC against human bacteria in vitro; format: cell-based; details: Staphylococcus aureus; Staph. aureus Russell; 5% chocolated horse blood agar, 18 hours; read-out: MIC
[17] = system: Erysipelothrix rhusiopathiae NCTC 8163; experiment: MIC against veterinary bacteria in vitro; details: Erysipelothrix rhusiopathiae, NCTC8163, 18 h
Description: as §1

[18] = system: Strep. spp. 64/848-C; experiment: MIC against human bacteria in vitro; format: cell-based; details: Strep. spp. 64/848-C; 5% chocolated horse blood agar, 18 hours; read-out: MIC
[19] = system: Strep. pneumoniae CN33; experiment: MIC against human bacteria in vitro; format: cell-based; details: Streptococcus pneumoniae, CN33, 18 h
[20] = system: Sarcina lutea 8340; experiment: MIC against human bacteria in vitro; format: cell-based; details: Micrococcus luteus; Sarcina lutea 8340; 5% chocolated horse blood agar, 18 hours; read-out: MIC
[21] = system: M. hyorhinis ATCC 23234; experiment: MIC against mycoplasma in vitro; format: cell-based; details: Mesomycoplasma hyorhinis, ATCC23234, 144 h; M. hyorhinis ATCC 23234; 6 days, 37° C.; read-out: MIC
[22] = system: K. aerogenes A; experiment: MIC against human bacteria in vitro; format: cell-based; details: Klebsiella aerogenes; K. aerogenes A; 5% chocolated horse blood agar, 18 hours; read-out: MIC
[23] = system: Strep. dysgalactiae SPD1; experiment: MIC against veterinary bacteria in vitro; details: Streptococcus dysgalactiae, SPD1, 18 h
Description: as §1

[24] = system: S. dublin S7; experiment: MIC against veterinary bacteria in vitro; details: Salmonella enterica, S7, 18 h
Description: as §1

[25] = system: Corynebacterium xerosis 9755; experiment: MIC against human bacteria in vitro; format: cell-based; details: Corynebacterium xerosis 9755; 5% chocolated horse blood agar, 18 hours; read-out: MIC
[26] = system: E. coli NCTC 10418; experiment: MIC against human bacteria in vitro; format: cell-based; details: Escherichia coli, NCTC10418, 18 h
[27] = system: M. suipneumoniae LABER; experiment: MIC against mycoplasma in vitro; format: cell-based; details: Mesomycoplasma hyopneumoniae, 144 h; M. suipneumoniae LABER; 6 days, 37° C.; read-out: MIC
[28] = system: Strep. agalactiae 2788-B; experiment: MIC against human bacteria in vitro; format: cell-based; details: Streptococcus agalactiae; Strep. agalactiae 2788-B; 5% chocolated horse blood agar, 18 hours; read-out: MIC
[29] = system: M. suipneumoniae NB12; experiment: MIC against mycoplasma in vitro; format: cell-based; details: Mesomycoplasma hyopneumoniae, 144 h; M. suipneumoniae NB12; Friis broth, 0.9% agarose, 6 days, 37° C.; read-out: MIC
[30] = system: M. suipneumoniae HK(2); experiment: MIC against mycoplasma in vitro; format: cell-based; details: Mesomycoplasma hyopneumoniae, 144 h; M. suipneumoniae HK(2); 6 days, 37° C.; read-out: MIC
[31] = system: Neisseria catarrhalis 1502; experiment: MIC against human bacteria in vitro; format: cell-based; details: Neisseria catarrhalis 1502; 5% chocolated horse blood agar, 18 hours; read-out: MIC
[32] = system: Staph. aureus Oxford; experiment: MIC against veterinary bacteria in vitro; details: Staphylococcus aureus, 18 h
Description: as §1

[33] = system: S. typhimurium S18; experiment: MIC against veterinary bacteria in vitro; details: Salmonella enterica, TYPHIMURIUM, 18 h
Description: as §1

[34] = system: Haemophilus influenzae Wy21; experiment: MIC against human bacteria in vitro; format: cell-based; details: Haemophilus influenzae Wy21; 5% chocolated horse blood agar, 18 hours; read-out: MIC
[35] = system: Strep. uberis SPU1; experiment: MIC against veterinary bacteria in vitro; details: Streptococcus uberis, SPU1, 18 h
Description: as §1

In the case of C/C(=C\c1nc(-c2ccccc2)c(-c2ccccc2)o1)C[C@@H]1OC[C@H](C[C@@H]2O[C@H]2[C@@H](C)[C@H](C)O)[C@@H](O)[C@H]1O [Example 41, 4,5-Diphenyl-2-(1-normon-2-yl)oxazole A], the MIC [1] was over 100 µg/mL, the MIC [2] was over 100 µg/mL and the MIC [3] was 5 µg/mL (≈ 9.62 µM). It also gave an MIC [4] of 40 µg/mL (≈ 77 µM), an MIC [5] of over 10 µg/mL and an MIC [6] of 20 µg/mL (≈ 38.5 µM). It also gave an MIC [7] of over 10 µg/mL, an MIC [8] of 100 µg/mL (≈ 192 µM) and an MIC [9] of over 10 µg/mL. The MIC [10] was 40 µg/mL (≈ 77 µM), the MIC [11] was over 100 µg/mL and the MIC [12] was over 10 µg/mL. The MIC [13] was over 10 µg/mL, the MIC [14] was 50 µg/mL (≈ 96.2 µM) and the MIC [15] was over 100 µg/mL. It also gave an MIC [16] of over 100 µg/mL, an MIC [17] of over 80 µg/mL and an MIC [18] of 100 µg/mL (≈ 192 µM). For the same compound, the MIC [19] was over 100 µg/mL, the MIC [20] was over 100 µg/mL and the MIC [21] was over 10 µg/mL. For the same compound, the MIC [22] was over 100 µg/mL, the MIC [23] was 20 µg/mL (≈ 38.5 µM) and the MIC [24] was over 80 µg/mL. The MIC [25] was over 100 µg/mL, the MIC [26] was over 100 µg/mL and the MIC [27] was over 10 µg/mL. The MIC [28] was over 100 µg/mL, the MIC [29] was over 10 µg/mL and the MIC [30] was over 10 µg/mL. For the same compound, the MIC [31] was 25 µg/mL (≈ 48.1 µM), the MIC [32] was 40 µg/mL (≈ 77 µM) and the MIC [33] was over 80 µg/mL. For the same compound, the MIC [34] was 25 µg/mL (≈ 48.1 µM) and the MIC [35] was 10 µg/mL (≈ 19.2 µM).

From patent publication US5041567A, “Antibacterial monic acid derivatives” (Beecham Group plc, priority 1982, dated 1991)
